Assays:
MTB CdnP [1] = target: T1, MTB CdnP (Mycobacterium tuberculosis, UniProt P71615); assay: Intrinsic fluorescence binding assay; conditions: 2 μM MTB CdnP, varying concentrations, 1× PBS
Method: (§1) Next, we sought to determine C82 mode of inhibition. Firstly, we confirmed that C82 does indeed bind to MTB CdnP, using intrinsic fluorescence assay^20. […] We then determined whether C82 could displace bound c-di-AMP from MTB CdnP. […] We also used a secondary fluorescent polarization displacement assay to confirm this finding. Briefly, fluorescent labeled c-di-GMP was incubated with MTB CdnP and treated with different concentrations of C82, or c-di-AMP in the presence of calcium to inhibit the cleavage of the bound CDN′″. […] We therefore concluded that C82 inhibits MTB CdnP by binding to a non-cyclic dinucleotide binding site. Kinetics studies reveal that C82 inhibits MTB CdnP with an apparent inhibition constant of approximately 8 μM (FIG. 8). Future structural work, beyond the scope of this work should help clarify the binding site of C82.
Solutions containing 2 μM MTB CndP, and varying concentrations of C82 in 1× PBS were incubated for 30 min at room temperature. Fluorescence spectra were obtained by measuring fluorescence intensities in the 310 nm to 400 nm range following an excitation at 290 nm wavelength.

ENPP1 = target: T2, ENPP1 (Homo sapiens, UniProt P22413); assay: Selectivity, HPLC analysis of ENPP1 reaction; conditions: 25 μM cGAMP, 4.58 nM ENPP1, 37° C., 60 min
T2 sequence (P22413 1-925): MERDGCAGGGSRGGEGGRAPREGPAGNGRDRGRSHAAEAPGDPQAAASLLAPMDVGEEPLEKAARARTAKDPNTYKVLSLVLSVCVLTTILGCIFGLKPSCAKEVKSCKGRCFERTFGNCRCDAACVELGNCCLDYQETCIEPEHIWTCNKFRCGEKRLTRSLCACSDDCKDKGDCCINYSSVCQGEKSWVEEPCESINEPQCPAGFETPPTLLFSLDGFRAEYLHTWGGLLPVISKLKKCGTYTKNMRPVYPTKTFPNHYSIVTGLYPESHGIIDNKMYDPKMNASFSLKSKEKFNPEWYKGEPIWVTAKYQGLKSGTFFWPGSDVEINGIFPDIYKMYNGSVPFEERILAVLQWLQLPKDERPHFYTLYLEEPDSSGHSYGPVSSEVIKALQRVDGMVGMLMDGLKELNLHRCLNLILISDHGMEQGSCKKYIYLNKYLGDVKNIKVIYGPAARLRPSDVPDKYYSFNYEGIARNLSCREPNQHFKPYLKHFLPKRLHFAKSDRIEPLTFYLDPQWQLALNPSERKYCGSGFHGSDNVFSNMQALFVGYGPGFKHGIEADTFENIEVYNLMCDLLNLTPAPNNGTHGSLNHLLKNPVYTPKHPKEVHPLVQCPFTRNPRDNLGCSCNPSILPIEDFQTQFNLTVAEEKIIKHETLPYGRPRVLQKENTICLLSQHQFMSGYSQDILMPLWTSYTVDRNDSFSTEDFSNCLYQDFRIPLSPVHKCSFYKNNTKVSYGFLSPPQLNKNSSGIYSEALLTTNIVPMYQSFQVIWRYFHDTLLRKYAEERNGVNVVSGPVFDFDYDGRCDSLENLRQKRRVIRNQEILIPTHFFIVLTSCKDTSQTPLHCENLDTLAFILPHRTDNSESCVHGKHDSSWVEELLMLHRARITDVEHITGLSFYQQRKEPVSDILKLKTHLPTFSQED

poxin = poxin (Vaccinia virus, UniProt Q01225); assay: Selectivity, HPLC analysis of poxin reaction; conditions: 20 μM 2′3 cGAMP, 5 nM poxin, room temperature, 20 min
MTB CdnP [2] = target: T1, MTB CdnP; format: biochemical; conditions: 20 to 150 μM inhibitor, 0.5 μM MTB CdnP, 1 h at 37° C.
RocR = RocR (Pseudomonas aeruginosa, UniProt Q9HX69); assay: Selectivity, HPLC analysis of RocR reaction; conditions: 25 μM c-di-GMP, 10 nM RocR, 37° C., 60 min
MTB CdnP [3] = target: T1, MTB CdnP; assay: HPLC analysis of c-di-AMP cleavage by MTB CdnP; format: biochemical; conditions: 20 μM compound, 100 nM MTB CdnP, 70 μM c-di-AMP, 37° C.
MTB CdnP [4] = target: T1, MTB CdnP; assay: Differential radial capillary action of ligand assay (DRaCALA); format: binding; conditions: 20 μM MTB CdnP, 200 pM 32P c-di-AMP; C82 even at 300 μM
Method: (§2) FIG. 7A: unlabeled c-di-AMP inhibits ^32P-c-di-AMP sequestering by MTB CdnP in a concentration dependent manner. FIG. 7B: C82 effects on ^32P-c-di-AMP sequestering by MTB CdnP. […] CDA=c-di-AMP. ***=p-value<0.001. Statistical analysis conducted using the student's t-test.
as §1
5 μl of the reaction mixture was pipetted onto dry untreated nitrocellulose membrane (GE Healthcare) and allowed to dry at room temperature. The nitrocellulose membrane was exposed to the GE Storage Phosphor screen for 8 h and then visualized with Typhoon™ FLA 9500 biomolecular imager.

MTB CdnP [5] = target: T1, MTB CdnP; assay: IC50 determination of MTB CdnP inhibition, coralyne assay; format: biochemical; conditions: 50 nM MTB CdnP and 80 μM c-di-AMP, read-out: IC50 of MTB CdnP enzymatic activity inhibition
MTB CdnP [6] = target: T1, MTB CdnP; assay: Kinetics study (Dixon plot) by coralyne assay; format: biochemical; conditions: 50 nM MTB CdnP, 30° C., read-out: apparent inhibition constant
Method: FIG. 8: C82 Dixon plot. Initial velocity was determined using slope of c-di-AMP hydrolysis kinetics.
as §1

PDE5A = target: T3, PDE5A (Homo sapiens, UniProt O76074); assay: Cyclic mononucleotide phosphodiesterase inhibition (PDE5A), Transcreener fluorescence polarization assay; format: biochemical; conditions: 10 μM of compound, 1 μM cGMP, 1 h
T3 construct: purchased Reaction Biology
Method: Cyclic mononucleotide phosphodiesterase inhibition (PDE5A): 10 μM of compound was added to PDE5A in Buffer (10 mM Tris, pH 7.5, 5 mM MgCl2, 0.01% Brij 35, 1 mM DTT, and 1% DMSO). 1 μM cGMP was added and the reaction was incubated for 1 h. The assay used detects the reaction product, GMP, by Transcreener Fluorescence polarization assay (Reaction Biology).

Yybt = Yybt (Bacillus subtilis, UniProt P37484); assay: Selectivity, HPLC analysis of Yybt reaction; conditions: 70 μM c-di-AMP, 1 μM Yybt, 37° C., 60 min
[7] = test system: mammalian cells (MDA-MB-231, and MRC-5); conditions: up to 100 μM, 24 h
GBS-CdnP = assay: Selectivity, HPLC analysis of GBS CdnP reaction; conditions: 50 μM c-di-AMP, 100 nM GBS CdnP, room temperature, 15 min
MTB CdnP [8] = target: T1, MTB CdnP; assay: Fluorescence polarization competition assay; format: binding; conditions: 150 μM MTB CdnP, 50 nM F-c-di-GMP, calcium
Method: as §2, §1
Fluorescence polarization was determined using Biotek Cytation 5 multi-mode reader (excitation 485 nm/20 and emission 528 nm/20). Anisotropy was calculated using the GEN 5™ microplate reader and imaging software.

PDE4 = conditions: read-out: IC50 (PDE4 inhibitor); cited from earlier work
PDE10 = conditions: read-out: IC50 (PDE10 inhibitor); cited from earlier work
PDE3 = conditions: read-out: IC50 (PDE3 inhibitor); cited from earlier work

For `CCc1cc2c(=O)n(CC(=O)Nc3ccccc3OC)cnc2s1` [Compound C82], which “binding to MTB CdnP (intrinsic fluorescence decay)” value (MTB CdnP [1]) is on record?
The value was “does bind to MTB CdnP”.

What about the “inhibition of ENPP1” value (ENPP1) of the same compound?
Its value is “did not inhibit”.

And the inhibition of poxin (poxin)?
Its inhibition of poxin is “did not inhibit”.

What about the “inhibition of c-di-AMP hydrolysis by MTB CdnP (TLC), varying inhibitor concentrations” value (MTB CdnP [2]) of the same compound?
Its value is “most potent inhibition”.

And the “inhibition of RocR” value (RocR)?
Its value is “did not inhibit”.

What about the “inhibition of c-di-AMP cleavage by MTB CdnP (HPLC), 3 h incubation” value (MTB CdnP [3]; 3 h) of the same compound?
The value was “most potent inhibitory effects”.

What about the “inhibition of c-di-AMP cleavage by MTB CdnP (HPLC), overnight (12 h) incubation” value (MTB CdnP [3]; 12 h) of the same compound?
The value was “retained any inhibitory effect”.

What about the “displacement of radiolabeled c-di-AMP from MTB CdnP (DRaCALA)” value (MTB CdnP [4]) of the same compound?
Its value is “did not displace radiolabeled c-di-AMP”.

And the IC50 (MTB CdnP [5])?
Its IC50 is 17.4 µM.

What about the Ki (MTB CdnP [6]) of the same compound?
Its Ki is about 8 µM.

What about the “% inhibition (PDE5A)” value (PDE5A) of the same compound?
The value was 32.00%.

What about the “inhibition of Yybt” value (Yybt) of the same compound?
The value was “did not inhibit”.

And the “cytotoxicity against mammalian cells (cell viability)” value [7]?
The value was “did not significantly inhibit cell viability”.

What about the “inhibition of GBS-CdnP” value (GBS-CdnP) of the same compound?
The value was “did not inhibit”.

What about the “displacement of fluorescent labeled c-di-GMP from MTB CdnP (fluorescence polarization)” value (MTB CdnP [8]) of the same compound?
The value was “did not displace the fluorescent labeled c-di-GMP”.

For `CCOc1cc([C@@H](CS(C)(=O)=O)N2C(=O)c3cccc(NC(C)=O)c3C2=O)ccc1OC` [apremilast], which IC50 (PDE4) is on record?
The IC50 was 0.074 µM.

Which IC50 (PDE10) does the source give for `COc1ccc(Cc2nccc3cc(OC)c(OC)cc23)cc1OC` [papaverine] here?
Its IC50 is 0.0923 µM.

With `CSc1ccc(C(=O)c2[nH]c(=O)[nH]c2C)cc1` [enoximone] as the compound, how does the IC50 (PDE3) read?
The IC50 was 10 µM.

With `Nc1ncnc2c1ncn2[C@@H]1O[C@@H]2COP(=O)(O)O[C@H]3[C@@H](O)[C@H](n4cnc5c(N)ncnc54)O[C@@H]3COP(=O)(O)O[C@H]2[C@H]1O` [c-di-AMP, reference compound] as the compound, how does the “displacement of radiolabeled c-di-AMP from MTB CdnP (DRaCALA)” value (MTB CdnP [4]) read?
The value was “could displace radiolabeled c-di-AMP”.

From patent US12122786B2, “Inhibitors of cyclic mono- and di-nucleotide phosphodiesterases and the uses thereof” (priority 2020, dated 2024)
